In US10961231B2, “NTCP inhibitors” (National Institute of Biological Sciences, Beijing, priority 2018, dated 2021) one finds IC50 data, which are given here for nine compounds.

In general, IC50 refers to the concentration at which inhibition is half-maximal.

The target in the assay is T1, NTCP (Homo sapiens, UniProt Q14973).
T1 sequence (Q14973 1-349): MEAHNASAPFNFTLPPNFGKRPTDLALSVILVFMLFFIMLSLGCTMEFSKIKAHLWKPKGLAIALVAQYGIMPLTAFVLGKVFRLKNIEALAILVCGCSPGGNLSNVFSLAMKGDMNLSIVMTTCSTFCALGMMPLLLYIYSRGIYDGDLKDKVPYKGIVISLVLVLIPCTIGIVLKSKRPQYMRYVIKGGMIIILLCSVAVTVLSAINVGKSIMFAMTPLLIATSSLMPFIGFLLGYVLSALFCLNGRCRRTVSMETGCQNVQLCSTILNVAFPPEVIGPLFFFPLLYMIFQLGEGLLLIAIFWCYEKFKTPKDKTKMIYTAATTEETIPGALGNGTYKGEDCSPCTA
Put plainly: [3H]-TCA uptake assay (NTCP inhibition). It is filed as cell-based. In outline: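 Read-out is liquid scintillation counting of Triton X-100 lysates after 15 min, 37° C uptake of 1 μM [3H]-taurocholate in Na+ Ringer's buffer (145 mM Na). Beforehand, PTH and HepG2-NTCP cells had 24 h in PMM for NTCP induction and 2 h of compound or DMSO treatment.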

[1] abbreviates: given as a range, assay not given.
The mark [2] stands for this setting: given as a range, marked * (asterisk not explained).

Read-outs that look alike come from different tables or passages of the source.

For `CCC1NC(=O)C(C2OC(Sc3cccc(OCc4ccc(F)c(Cl)c4)c3)CC2C)N(C)C(=O)C(C(C)C)N(C)C(=O)C(CC(C)C)N(C)C(=O)C(CC(C)C)N(C)C(=O)C(C)NC(=O)C(C)NC(=O)C(CC(C)C)N(C)C(=O)C(C(C)C)NC(=O)C(CC(C)C)N(C)C(=O)CN(C)C1=O` [Compound 22A, [2-((2R,3R)-5-(3-(3-chloro-4-fluorobenzyloxy)phenylthio)-3-methyltetrahydrofuran-2-yl)-2-(methylamino)acetic acid]^1-cyclosporin A], the IC50 under setting [1] fell in the range of 0.001 to 1 µM.

Compound `CCC1NC(=O)C(C2OC(Oc3cccc(OCc4ccc(F)c(Cl)c4)c3)CC2C)N(C)C(=O)C(C(C)C)N(C)C(=O)C(CC(C)C)N(C)C(=O)C(CC(C)C)N(C)C(=O)C(C)NC(=O)C(C)NC(=O)C(CC(C)C)N(C)C(=O)C(C(C)C)NC(=O)C(CC(C)C)N(C)C(=O)CN(C)C1=O` (stereo not drawn) [Compound 22A-o] registered an IC50 under setting [2] of 1 to 100 µM.

`CC[C@@H]1NC(=O)[C@H]([C@@H]2OC(Sc3cccc(OCc4ccc(F)cc4Cl)c3)C[C@H]2C)N(C)C(=O)[C@H](C(C)C)N(C)C(=O)[C@H](CC(C)C)N(C)C(=O)[C@H](CC(C)C)N(C)C(=O)[C@@H](C)NC(=O)[C@H](C)NC(=O)[C@H](CC(C)C)N(C)C(=O)[C@H](C(C)C)NC(=O)[C@H](CC(C)C)N(C)C(=O)CN(C)C1=O` (stereo partly drawn) [Compound 23A, [2-((2R,3R)-5-(3-(2-chloro-4-fluorobenzyloxy)phenylthio)-3-methyltetrahydrofuran-2-yl)-2-(methylamino)acetic acid]^1-cyclosporin A]: the IC50 (given as a range, assay not given, read-out: IC50) fell in the range of 0.001 to 1 µM.

Compound `CCC1NC(=O)C(C2OC(Oc3cccc(OCc4ccc(F)cc4Cl)c3)CC2C)N(C)C(=O)C(C(C)C)N(C)C(=O)C(CC(C)C)N(C)C(=O)C(CC(C)C)N(C)C(=O)C(C)NC(=O)C(C)NC(=O)C(CC(C)C)N(C)C(=O)C(C(C)C)NC(=O)C(CC(C)C)N(C)C(=O)CN(C)C1=O` (stereo not drawn) [Compound 23A-o] yielded an IC50 under setting [2] of 1 to 100 µM.

`CCC1NC(=O)C(C2OC(Sc3cccc(OCc4ccc(F)cc4C)c3)CC2C)N(C)C(=O)C(C(C)C)N(C)C(=O)C(CC(C)C)N(C)C(=O)C(CC(C)C)N(C)C(=O)C(C)NC(=O)C(C)NC(=O)C(CC(C)C)N(C)C(=O)C(C(C)C)NC(=O)C(CC(C)C)N(C)C(=O)CN(C)C1=O` [Compound 24A, [2-((2R,3R)-5-(3-(4-fluoro-2-methylbenzyloxy)phenylthio)-3-methyltetrahydrofuran-2-yl)-2-(methylamino)acetic acid]^1-cyclosporin A] returned an IC50 under setting [1] of 0.001 to 1 µM.

With `CCC1NC(=O)C(C2OC(Oc3cccc(OCc4ccc(F)cc4C)c3)CC2C)N(C)C(=O)C(C(C)C)N(C)C(=O)C(CC(C)C)N(C)C(=O)C(CC(C)C)N(C)C(=O)C(C)NC(=O)C(C)NC(=O)C(CC(C)C)N(C)C(=O)C(C(C)C)NC(=O)C(CC(C)C)N(C)C(=O)CN(C)C1=O` (stereo not drawn) [Compound 24A-o], under setting [2], the IC50 fell in the range of 1 to 100 µM.

Under setting [1], `CCC1NC(=O)C(C2OC(Sc3cccc(O)c3)CC2C)N(C)C(=O)C(C(C)C)N(C)C(=O)C(CC(C)C)N(C)C(=O)C(CC(C)C)N(C)C(=O)C(C)NC(=O)C(C)NC(=O)C(CC(C)C)N(C)C(=O)C(C(C)C)NC(=O)C(CC(C)C)N(C)C(=O)CN(C)C1=O` [Compound 25A, [2-((2R,3R)-5-(3-hydroxyphenylthio)-3-methyltetrahydrofuran-2-yl)-2-(methylamino)acetic acid]^1-cyclosporine A] gave an IC50 of 0.001 to 1 µM.

In turn, `CCC1NC(=O)C(C2OC(Oc3cccc(O)c3)CC2C)N(C)C(=O)C(C(C)C)N(C)C(=O)C(CC(C)C)N(C)C(=O)C(CC(C)C)N(C)C(=O)C(C)NC(=O)C(C)NC(=O)C(CC(C)C)N(C)C(=O)C(C(C)C)NC(=O)C(CC(C)C)N(C)C(=O)CN(C)C1=O` (stereo not drawn) [Compound 25A-o] showed an IC50 (IC50, given as a range, marked * (asterisk not explained)) of 1 to 100 µM.

With `CCC1NC(=O)C(C2OC(Sc3ccc(OC)cc3)CC2C)N(C)C(=O)C(C(C)C)N(C)C(=O)C(CC(C)C)N(C)C(=O)C(CC(C)C)N(C)C(=O)C(C)NC(=O)C(C)NC(=O)C(CC(C)C)N(C)C(=O)C(C(C)C)NC(=O)C(CC(C)C)N(C)C(=O)CN(C)C1=O` [Compound 26A, [2-((2R,3R)-5-(4-methoxyphenylthio)-3-methyltetrahydrofuran-2-yl)-2-(methylamino)acetic acid]^1-cyclosporin A], the IC50 under setting [1] lay within 0.001 to 1 µM.
